Assays:
[1] = system: mortality of elderly Cache County participants; details: in vivo
Protocol: Also, to examine the effect of these constituents on differential mortality, logistic regression was used to estimate the relative risk of mortality over the course of follow-up among the 5 user groups. These analyses, were controlled for age, sex, education, and APOE genotype status. All analyses were performed using SAS statistical software package version 8.0.
Also, an analysis was effected to assess whether there was an increased risk of mortality among any of the user groups that might potentially bias the observed associations with cognitive performance over time.

mortality of the elderly = details: placebo-controlled trial in the elderly; cited from earlier work
[2] = system: mortality of 39,876 healthy participants; details: cited from earlier work

vitamin E
harm of vitamin E, subgroup analysis (in words) [1]: may only be harmful among elderly with prior cardiovascular disease | mortality associated with using vitamin E (in words) (mortality of the elderly): did not note any increased mortality | cardiovascular mortality (in words) ([2]; healthy women): trend toward decreased cardiovascular mortality | mortality vs placebo (in words) ([2]; monitored for over 10 years): no significant difference in mortality

Reference: patent publication US20100112048A1, “Dosage Regimen and Medicament For Reducing Risk of Onset or Progression of Dementia by Administration of Specific Vitamins and Nsaid” (priority 2006, published 2010)
